Data: ChEMBL document CHEMBL4837239, “Identification of Thieno[3,2-d]pyrimidine Derivatives as Dual Inhibitors of Focal Adhesion Kinase and FMS-like Tyrosine Kinase 3” (J Med Chem, 2021)
The source made the active and inactive calls. No cut-off for these calls is given here.

Columns and labels:
Focal adhesion kinase 1 [1] = molecular target: T1, Focal adhesion kinase 1 (Homo sapiens, UniProt Q05397); assay: Inhibition of recombinant FAK (unknown origin) by radiometric kinase assay
Target sequence in this assay (Q05397 whole entry): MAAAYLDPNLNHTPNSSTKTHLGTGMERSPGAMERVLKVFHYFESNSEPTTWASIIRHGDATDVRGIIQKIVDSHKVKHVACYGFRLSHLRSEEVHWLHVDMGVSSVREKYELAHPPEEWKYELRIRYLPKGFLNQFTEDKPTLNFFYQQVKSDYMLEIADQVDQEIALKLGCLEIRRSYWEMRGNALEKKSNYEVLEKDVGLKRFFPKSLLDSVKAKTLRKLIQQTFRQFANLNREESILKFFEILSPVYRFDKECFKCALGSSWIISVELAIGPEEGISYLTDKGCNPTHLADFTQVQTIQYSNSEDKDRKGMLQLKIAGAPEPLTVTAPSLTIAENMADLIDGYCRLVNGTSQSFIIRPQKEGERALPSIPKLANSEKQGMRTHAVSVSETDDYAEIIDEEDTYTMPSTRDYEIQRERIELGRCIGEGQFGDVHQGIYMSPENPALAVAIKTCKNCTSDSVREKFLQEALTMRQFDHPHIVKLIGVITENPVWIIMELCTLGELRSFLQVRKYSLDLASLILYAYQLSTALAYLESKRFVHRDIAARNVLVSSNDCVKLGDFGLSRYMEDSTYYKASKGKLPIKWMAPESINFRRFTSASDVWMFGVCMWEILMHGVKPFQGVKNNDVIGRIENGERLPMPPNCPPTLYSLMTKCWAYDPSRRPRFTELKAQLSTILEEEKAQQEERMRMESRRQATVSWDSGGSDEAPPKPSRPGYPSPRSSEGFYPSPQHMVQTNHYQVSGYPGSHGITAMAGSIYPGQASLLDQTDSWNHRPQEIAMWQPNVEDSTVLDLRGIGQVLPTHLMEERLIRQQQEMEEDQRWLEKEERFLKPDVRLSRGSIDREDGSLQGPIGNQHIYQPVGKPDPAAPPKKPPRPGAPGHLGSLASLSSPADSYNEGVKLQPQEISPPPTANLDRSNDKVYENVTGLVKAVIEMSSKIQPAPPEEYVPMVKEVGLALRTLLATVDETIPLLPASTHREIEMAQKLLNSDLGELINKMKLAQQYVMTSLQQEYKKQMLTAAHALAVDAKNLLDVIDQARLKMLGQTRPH

CYP2C19 = CYP2C19 (Homo sapiens, UniProt P33261); assay: Inhibition of CYP2C19 (unknown origin) at 10 uM relative to control; format: ADME
CYP2D6 = CYP2D6 (Homo sapiens, UniProt P10635); assay: Inhibition of CYP2D6 (unknown origin) at 10 uM relative to control; format: ADME
[2] = Oral bioavailability in mouse at 10 mg/kg; format: ADME, organism-based; details: in vivo
[3] = Oral bioavailability in rat at 5 mg/kg; format: ADME, organism-based; details: in vivo
[4] = molecular target: Tyrosine-protein kinase JAK3 (Homo sapiens, UniProt P52333); assay: Inhibition of JAK3 (unknown origin)
Focal adhesion kinase 1 [5] = molecular target: T1, Focal adhesion kinase 1; assay: Inhibition of FAK (unknown origin)
Target sequence in this assay (Q05397 whole entry): as above

[6] = molecular target: T2, Casein kinase II subunit alpha (Homo sapiens, UniProt P68400); assay: Inhibition of CK2alpha1 (unknown origin)
[7] = molecular target: Tyrosine-protein kinase Lck (Homo sapiens, UniProt P06239); assay: Inhibition of Lck (unknown origin)
[8] = molecular target: Tyrosine-protein kinase JAK1 (Homo sapiens, UniProt P23458); assay: Inhibition of JAK1 (unknown origin)
[9] = molecular target: T3, Proto-oncogene tyrosine-protein kinase Src (Homo sapiens, UniProt P12931); assay: Inhibition of Src (unknown origin)
Ephrin type-B receptor 1 = Ephrin type-B receptor 1 (Homo sapiens, UniProt P54762); assay: Inhibition of EphB1 (unknown origin)
[10] = molecular target: Tyrosine-protein kinase JAK3 (Homo sapiens) (UniProt P52333); assay: Inhibition of JAK3 (unknown origin) at 0.1 uM
Focal adhesion kinase 1 [11] = molecular target: T1, Focal adhesion kinase 1; assay: Inhibition of FAK (unknown origin) at 0.1 uM
Target sequence in this assay (Q05397 2-1052 limits assumed): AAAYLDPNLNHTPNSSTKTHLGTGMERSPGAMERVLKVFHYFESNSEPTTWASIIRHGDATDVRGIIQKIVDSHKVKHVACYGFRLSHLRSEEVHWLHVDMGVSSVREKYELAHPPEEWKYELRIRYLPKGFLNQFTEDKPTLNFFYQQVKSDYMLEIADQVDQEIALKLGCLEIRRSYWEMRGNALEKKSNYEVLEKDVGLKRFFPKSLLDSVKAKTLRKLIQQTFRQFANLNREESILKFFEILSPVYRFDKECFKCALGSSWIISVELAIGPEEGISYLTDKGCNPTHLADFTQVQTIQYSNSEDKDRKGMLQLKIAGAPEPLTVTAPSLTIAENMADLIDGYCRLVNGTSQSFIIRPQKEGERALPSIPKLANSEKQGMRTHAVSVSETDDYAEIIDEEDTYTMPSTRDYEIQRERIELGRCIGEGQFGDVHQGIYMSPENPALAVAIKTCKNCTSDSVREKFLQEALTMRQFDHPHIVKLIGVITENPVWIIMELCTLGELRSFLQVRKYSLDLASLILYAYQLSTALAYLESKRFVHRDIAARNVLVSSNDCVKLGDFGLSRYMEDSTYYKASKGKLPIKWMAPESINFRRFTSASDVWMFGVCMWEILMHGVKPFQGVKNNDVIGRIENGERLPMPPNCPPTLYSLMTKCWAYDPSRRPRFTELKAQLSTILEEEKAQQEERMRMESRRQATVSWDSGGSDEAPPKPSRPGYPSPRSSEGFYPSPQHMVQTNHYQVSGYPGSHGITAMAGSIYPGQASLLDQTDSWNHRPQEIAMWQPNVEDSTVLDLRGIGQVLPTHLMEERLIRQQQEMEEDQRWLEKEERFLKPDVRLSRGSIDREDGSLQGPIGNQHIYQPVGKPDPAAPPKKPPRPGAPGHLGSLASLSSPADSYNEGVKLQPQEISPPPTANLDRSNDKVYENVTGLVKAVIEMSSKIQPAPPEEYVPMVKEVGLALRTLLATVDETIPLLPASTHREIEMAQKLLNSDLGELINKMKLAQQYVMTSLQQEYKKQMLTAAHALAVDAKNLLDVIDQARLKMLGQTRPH

[12] = molecular target: T2, Casein kinase II subunit alpha; assay: Inhibition of CK2alpha1 (unknown origin) at 0.1 uM
[13] = molecular target: Proto-oncogene tyrosine-protein kinase receptor Ret (Homo sapiens, UniProt P07949); assay: Inhibition of RET (unknown origin) at 0.1 uM
[14] = molecular target: T3, Proto-oncogene tyrosine-protein kinase Src; assay: Inhibition of Src (unknown origin) at 0.1 uM
BaF3 [15] = assay: Antiproliferative activity against mouse Ba/F3 cells harbouring FLT3 ITD F691I mutant assessed as growth inhibition measured after 72 hrs by CellTiter-Glo assay; format: functional; details: Mus musculus, BaF3
Focal adhesion kinase 1 [16] = molecular target: T1, Focal adhesion kinase 1; assay: Inhibition of FAK autophosphorylation at Y576 in human HCT-116 cells at 5 uM incubated for 24 hrs by Western blot analysis; format: cell-based
Target sequence in this assay (Q05397 2-1052 limits assumed): as above

Focal adhesion kinase 1 [17] = molecular target: T1, Focal adhesion kinase 1; assay: Inhibition of FAK in human HCT-116 cells assessed as inhibition of Pyk2 phosphorylation at 0.5 to 5 uM incubated for 24 hrs by Western blot analysis; format: cell-based; details: dose 0.5-5 µM
Target sequence in this assay (Q05397 2-1052 limits assumed): as above

HCT-116 = assay: Growth inhibition of anchorage-Independent human HCT-116 cells assessed as decrease in size incubated for 72 hrs by MTT assay; format: functional, cell-based; details: dose 1-10 µM
MDA-MB-231 [18] = assay: Antiinvasive activity in human MDA-MB-231 cells assessed as suppression of invasion measured after 12 hrs by trans well experiment; format: functional; details: dose 0.5-1 µM, at 0.5 to 1 µM
MDA-MB-231 [19] = assay: Disruption of focal adhesion of human MDA-MB-231 cells assessed as decrease in vinculin measured after 3 hrs by Alexa Fluor 488-conjugated Ab based fluorescence analysis; format: functional, cell-based; details: dose 1-10 µM
MDA-MB-231 [20] = assay: Antimetastatic activity against human MDA-MB-231 cells expressing firefly luciferase xenografted NSG orthotopic mouse model assessed as suppression of lymphogenous metastasis at 70 mg/kg, po once daily measured for 2 weeks; format: functional, organism-based
MDA-MB-231 [21] = assay: Antimetastatic activity against human MDA-MB-231 cells expressing firefly luciferase xenografted NSG orthotopic mouse model assessed as reduction in luminescence intensity at liver at 70 mg/kg, po once daily measured for 2 weeks; format: functional, organism-based
BaF3 [22] = assay: Inhibition of FLT3-ITD/[…] mutant (unknown origin) expressed in mouse BaF3 cells assessed as decrease in autophosphorylation at 1 nM by Western blot analysis; format: cell-based; details: Homo sapiens
[23] = test system: T4, Receptor-type tyrosine-protein kinase FLT3 (Homo sapiens), P36888 [D835Y]; assay: Inhibition of FLT3-D835Y mutant (unknown origin) expressed in mouse BaF3 cells assessed as decrease in ERK phosphorylation at 1 nM by Western blot analysis; format: cell-based
T4 sequence (whole entry): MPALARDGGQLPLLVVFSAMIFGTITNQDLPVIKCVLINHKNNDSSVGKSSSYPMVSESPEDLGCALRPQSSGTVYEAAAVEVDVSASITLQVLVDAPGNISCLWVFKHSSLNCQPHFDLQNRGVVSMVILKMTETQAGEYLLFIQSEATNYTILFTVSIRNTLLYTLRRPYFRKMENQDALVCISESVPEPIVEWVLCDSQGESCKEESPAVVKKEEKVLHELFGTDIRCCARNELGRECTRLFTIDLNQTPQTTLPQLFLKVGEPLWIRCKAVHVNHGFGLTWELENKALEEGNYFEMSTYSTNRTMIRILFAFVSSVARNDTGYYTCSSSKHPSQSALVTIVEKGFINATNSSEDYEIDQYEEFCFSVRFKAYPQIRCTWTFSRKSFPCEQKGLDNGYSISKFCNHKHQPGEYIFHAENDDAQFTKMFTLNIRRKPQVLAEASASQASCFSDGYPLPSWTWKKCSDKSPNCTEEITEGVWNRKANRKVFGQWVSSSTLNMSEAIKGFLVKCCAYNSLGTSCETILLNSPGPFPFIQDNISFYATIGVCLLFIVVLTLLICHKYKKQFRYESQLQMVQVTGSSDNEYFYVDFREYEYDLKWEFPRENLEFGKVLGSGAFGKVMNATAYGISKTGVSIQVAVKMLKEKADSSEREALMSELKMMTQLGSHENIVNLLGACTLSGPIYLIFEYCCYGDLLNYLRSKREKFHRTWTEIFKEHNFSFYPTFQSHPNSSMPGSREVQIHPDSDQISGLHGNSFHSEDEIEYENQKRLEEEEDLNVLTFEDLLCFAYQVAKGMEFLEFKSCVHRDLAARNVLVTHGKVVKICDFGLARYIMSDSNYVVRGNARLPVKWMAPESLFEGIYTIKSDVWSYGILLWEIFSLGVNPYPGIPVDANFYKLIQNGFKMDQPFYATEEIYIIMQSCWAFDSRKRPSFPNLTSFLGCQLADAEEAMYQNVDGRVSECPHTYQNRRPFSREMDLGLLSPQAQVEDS

[24] = test system: T4, Receptor-type tyrosine-protein kinase FLT3 (Homo sapiens), P36888 [D835Y]; assay: Inhibition of FLT3-D835Y mutant (unknown origin) expressed in mouse BaF3 cells assessed as decrease in STAT5 phosphorylation at 1 nM by Western blot analysis; format: cell-based
[25] = test system: T4, Receptor-type tyrosine-protein kinase FLT3 (Homo sapiens), P36888 [D835Y]; assay: Inhibition of FLT3-D835Y mutant (unknown origin) expressed in mouse Ba/F3 cells assessed as decrease in ERK phosphorylation at 10 nM by Western blot analysis; format: cell-based; details: BaF3
MV4-11 = assay: In vivo antitumor activity against human MV4-11 cells xenografted in mouse assessed as tumor growth inhibition at 50 mg/kg, po; format: functional; details: MV4-11, po
[26] = Toxicity in mouse xenografted with human MV4-11 cells assessed as change in body weight at 20 to 50 mg/kg, po; format: organism-based; details: in vivo, dose 20-50 mg/kg

T3 sequence (P12931 2-536 limits assumed): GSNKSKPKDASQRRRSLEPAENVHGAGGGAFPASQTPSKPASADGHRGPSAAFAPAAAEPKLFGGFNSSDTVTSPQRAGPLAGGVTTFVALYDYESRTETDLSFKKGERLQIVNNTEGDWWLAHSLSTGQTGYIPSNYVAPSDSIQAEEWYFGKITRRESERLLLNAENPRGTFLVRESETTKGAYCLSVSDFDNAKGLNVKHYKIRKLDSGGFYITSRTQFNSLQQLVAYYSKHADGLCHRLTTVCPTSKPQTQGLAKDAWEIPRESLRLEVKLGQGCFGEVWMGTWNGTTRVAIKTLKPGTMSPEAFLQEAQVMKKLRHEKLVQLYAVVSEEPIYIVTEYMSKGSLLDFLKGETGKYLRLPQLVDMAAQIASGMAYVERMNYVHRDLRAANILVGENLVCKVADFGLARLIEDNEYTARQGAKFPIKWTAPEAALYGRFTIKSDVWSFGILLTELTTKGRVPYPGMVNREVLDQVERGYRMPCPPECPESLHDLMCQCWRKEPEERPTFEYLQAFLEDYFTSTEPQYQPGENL
Chain of Tyrosine-protein kinase JAK3 (Homo sapiens) (P52333 whole entry): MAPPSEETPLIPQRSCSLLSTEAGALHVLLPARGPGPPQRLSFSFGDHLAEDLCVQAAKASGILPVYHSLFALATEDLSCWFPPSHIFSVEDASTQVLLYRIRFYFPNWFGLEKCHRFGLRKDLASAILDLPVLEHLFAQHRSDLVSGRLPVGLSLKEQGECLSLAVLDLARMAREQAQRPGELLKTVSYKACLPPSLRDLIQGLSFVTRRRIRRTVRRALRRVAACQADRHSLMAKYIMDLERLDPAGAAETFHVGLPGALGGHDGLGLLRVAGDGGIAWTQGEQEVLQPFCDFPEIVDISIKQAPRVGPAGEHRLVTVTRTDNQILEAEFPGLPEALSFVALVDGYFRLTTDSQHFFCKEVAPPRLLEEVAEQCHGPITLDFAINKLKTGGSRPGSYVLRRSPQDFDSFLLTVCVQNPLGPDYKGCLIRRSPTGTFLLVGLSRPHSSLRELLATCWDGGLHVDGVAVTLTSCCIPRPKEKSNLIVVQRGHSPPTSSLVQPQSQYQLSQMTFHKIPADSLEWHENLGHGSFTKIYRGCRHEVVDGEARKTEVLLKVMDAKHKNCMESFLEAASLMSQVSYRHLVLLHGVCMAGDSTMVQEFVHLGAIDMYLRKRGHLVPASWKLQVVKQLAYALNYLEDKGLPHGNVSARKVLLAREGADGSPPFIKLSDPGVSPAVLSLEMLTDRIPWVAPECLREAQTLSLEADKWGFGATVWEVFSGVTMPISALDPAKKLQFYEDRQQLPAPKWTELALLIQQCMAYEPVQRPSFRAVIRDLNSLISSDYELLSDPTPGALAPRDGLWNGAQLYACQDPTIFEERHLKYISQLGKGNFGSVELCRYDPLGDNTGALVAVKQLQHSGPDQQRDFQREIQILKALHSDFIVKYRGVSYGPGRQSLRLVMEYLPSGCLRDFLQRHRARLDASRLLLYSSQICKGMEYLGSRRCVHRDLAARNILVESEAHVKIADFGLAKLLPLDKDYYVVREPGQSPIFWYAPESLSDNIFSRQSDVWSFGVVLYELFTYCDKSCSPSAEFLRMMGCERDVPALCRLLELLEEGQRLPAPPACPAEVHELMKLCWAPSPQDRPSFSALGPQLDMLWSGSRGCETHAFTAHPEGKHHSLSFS
Chain of Tyrosine-protein kinase JAK3 (P52333 whole entry): as above
Chain of CYP2D6 (P10635 whole entry): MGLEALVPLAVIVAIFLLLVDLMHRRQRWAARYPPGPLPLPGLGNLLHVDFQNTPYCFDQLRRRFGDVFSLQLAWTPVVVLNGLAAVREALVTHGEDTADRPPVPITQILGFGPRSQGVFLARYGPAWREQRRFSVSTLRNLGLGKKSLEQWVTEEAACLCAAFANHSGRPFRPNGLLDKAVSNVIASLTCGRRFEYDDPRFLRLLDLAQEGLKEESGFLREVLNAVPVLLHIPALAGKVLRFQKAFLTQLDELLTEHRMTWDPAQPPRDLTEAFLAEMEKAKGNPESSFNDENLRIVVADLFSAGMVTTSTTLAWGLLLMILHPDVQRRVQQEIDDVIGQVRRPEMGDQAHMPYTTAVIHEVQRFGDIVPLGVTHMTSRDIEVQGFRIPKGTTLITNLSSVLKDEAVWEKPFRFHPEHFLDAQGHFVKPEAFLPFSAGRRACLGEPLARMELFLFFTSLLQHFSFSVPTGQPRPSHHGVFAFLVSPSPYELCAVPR
Chain of CYP2C19 (P33261 whole entry): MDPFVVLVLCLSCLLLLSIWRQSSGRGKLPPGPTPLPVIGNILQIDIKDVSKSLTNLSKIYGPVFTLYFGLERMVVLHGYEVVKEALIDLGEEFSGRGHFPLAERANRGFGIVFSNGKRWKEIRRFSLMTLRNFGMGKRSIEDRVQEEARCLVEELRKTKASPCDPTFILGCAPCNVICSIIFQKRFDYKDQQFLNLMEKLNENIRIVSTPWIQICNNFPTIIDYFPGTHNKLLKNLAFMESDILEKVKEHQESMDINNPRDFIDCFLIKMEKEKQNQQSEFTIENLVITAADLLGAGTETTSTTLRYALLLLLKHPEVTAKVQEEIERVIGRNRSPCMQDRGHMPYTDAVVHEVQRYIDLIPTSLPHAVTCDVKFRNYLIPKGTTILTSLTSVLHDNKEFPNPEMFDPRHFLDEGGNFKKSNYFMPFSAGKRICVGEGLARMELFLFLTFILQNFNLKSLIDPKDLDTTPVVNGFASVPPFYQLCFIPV

CCN1CCN(c2ccc(Nc3ncc4scc(-c5cccc(NS(C)(=O)=O)c5)c4n3)cc2)CC1
IC50 (Focal adhesion kinase 1 [1]): 7 nM
inhibition at 10 µM (CYP2C19): 90.6%
inhibition at 10 µM (CYP2D6): 100%
bioavailability [2]: 15.8%
bioavailability [3]: 37.1%
IC50 [4]: 3.2 nM
IC50 (Focal adhesion kinase 1 [5]): 9.7 nM
IC50 [6]: 13.9 nM
IC50 [7]: 7.8 nM
IC50 [8]: 1.8 nM
IC50 [9]: 3.4 nM
IC50 (Ephrin type-B receptor 1): 29.8 nM
inhibition [10]: 96.7%
inhibition (Focal adhesion kinase 1 [11]): 95.6%
inhibition [12]: 95.5%
inhibition [13]: 95.3%
inhibition [14]: 93.1%
GI50 (BaF3 [15]): 114 nM
inhibition (Focal adhesion kinase 1 [16]): Active
inhibition (Focal adhesion kinase 1 [17]): Active
growth inhibition (GI) (HCT-116): Active
inhibition (INH) (MDA-MB-231 [18]): 50%
Activity (MDA-MB-231 [19]): Active
Activity (MDA-MB-231 [20]): Active
Activity (MDA-MB-231 [21]): Active
inhibition (BaF3 [22]): Active
inhibition [23]: Active
inhibition [24]: Active
inhibition [25]: 100%
inhibition in vivo at 50 mg/kg (MV4-11): 96%
Activity [26]: Non-Toxic
